Results: patent US20050203029A1, “Agents for treating <I>flaviviridae</I>infections” (priority 2002, published 2005)
Peptide text beside a SMILES is read from it. * marks the point of attachment. Cbz = O=C(OCc1ccccc1)*

What was measured:
BVDV = test: Electron microscopy (TEM) of BVDV-infected MDBK cells and virus supernatants; format: cell-based, bovine viral diarrhea virus
BVDV (CP7, NADL) = test: Western blot of pelleted BVDV virions with anti-BVDV core antibodies; format: cell-based, bovine viral diarrhea virus; conditions: for production of BVDV virions (pelleted virions): 24 or 48 hours of treatment; for core signal, mature and immature form of the BVDV core protein / quantity of BVDV virus as measured by the core signal: 48 hours of treatment; for quantity of BVDV virus as measured by the core signal: 150 μM
BVDV CP7 = BVDV CP7 infection of MDBK cells (end point titration, RNase protection, immunofluorescence); format: cell-based, bovine viral diarrhea virus; conditions: 10 nM PI after infection, 30 hours
West Nile virus = West Nile virus infection of BHK-21 cells (end point titration, RNase protection, immunofluorescence); format: cell-based, West Nile flavivirus; conditions: 10 nM PI after infection, 12 hours

| SMILES | number of virus particles detected in cellular vesicles vs mock (BVDV; 10 μm MG132, 30 hours) | ratio of completely assembled to incompletely assembled virions (BVDV; 10 μm MG132, 30 hours) | morphology of secreted viruses vs wild-type viruses (BVDV; supernatants of PI-treated vs mock-treated cells) | production of BVDV virions (pelleted virions) (BVDV (CP7, NADL)) | core signal, mature and immature form of the BVDV core protein (BVDV (CP7, NADL)) | quantity of BVDV virus as measured by the core signal (BVDV (CP7, NADL)) [%] | reduction in the number of progeny viruses released (BVDV CP7) | reduction in the number of progeny viruses released (West Nile virus) | reduction in the rate of RNA replication (factor) (BVDV CP7) | reduction in the rate of RNA replication (factor) (West Nile virus) |
| --- | --- | --- | --- | --- | --- | --- | --- | --- | --- | --- |
| CC(C)C[C@@H](C=O)NC(=O)[C@H](CC(C)C)NC(=O)[C@H](CC(C)C)NC(=O)OCc1ccccc1 [MG132, N-carbobenzoxy-L-leucinyl-L-leucinyl-L-leucinal] (Cbz-Leu-Leu-Leu-aldehyde) | significantly smaller number of virus particles | shifted significantly in favor of incompletely assembled virus particles | changed markedly | block the production of BVDV virions | dose-dependent decrease | 10 | several log steps | several log steps | – | – |
| CC(=O)N[C@@H](CSC(=O)[C@]1([C@@H](O)C(C)C)NC(=O)[C@H](C)[C@@H]1O)C(=O)O [lactacystin] | – | – | – | block the production of BVDV virions | dose-dependent decrease | 10 | slight | slight | slight | slight |
